This is an account of results in patent publication US20240307353A1, “JAK1 PATHWAY INHIBITORS FOR THE TREATMENT OF ASTHMA” (Incyte Corporation, priority 2023, published 2024).

Experiment [1] has as its target human JAK1 (a.a. 837-1142) (Homo sapiens, UniProt P23458). In words: In vitro JAK kinase assay (HTRF), JAK1. The class given is biochemical. To be noted: 1 mM ATP.
Method: (§1) The catalytic activity of JAK1, JAK2 or JAK3 was assayed by measuring the phosphorylation of a biotinylated peptide. The phosphorylated peptide was detected by homogenous time resolved fluorescence (HTRF). […] Reactions were carried out at room temperature for 1 hour and then stopped with 20 μL 45 mM EDTA, 300 nM SA-APC, 6 nM Eu-Py20 in assay buffer (Perkin Elmer, Boston, MA). Binding to the Europium labeled antibody took place for 40 minutes and HTRF signal was measured on a Fusion plate reader (Perkin Elmer, Boston, MA).
The next experiment has as its target JAK2 (a.a. 828-1132) (Homo sapiens (Human), UniProt O60674). In words: In vitro JAK kinase assay (HTRF), JAK2 versus JAK1. To be noted: IC50 ratio, 1 mM ATP. The class given is biochemical.

Sequence of JAK2 (a.a. 828-1132) (O60674 828-1132): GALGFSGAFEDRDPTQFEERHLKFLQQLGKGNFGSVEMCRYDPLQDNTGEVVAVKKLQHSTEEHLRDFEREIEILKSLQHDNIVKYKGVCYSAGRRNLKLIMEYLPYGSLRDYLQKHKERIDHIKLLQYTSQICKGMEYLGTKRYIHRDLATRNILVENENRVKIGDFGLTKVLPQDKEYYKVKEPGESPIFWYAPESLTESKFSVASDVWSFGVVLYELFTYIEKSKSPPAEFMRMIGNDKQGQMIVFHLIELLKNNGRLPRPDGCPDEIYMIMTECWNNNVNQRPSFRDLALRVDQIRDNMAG
Method for JAK2 (a.a. 828-1132): as §1

In the case of `N#CCC(C1CCN(c2nc3cccnc3o2)C1)n1cc(-c2ncnc3[nH]ccc23)cn1` (stereo not drawn) [Compound 7, 3-(1-[1,3]oxazolo[5,4-b]pyridin-2-ylpyrrolidin-3-yl)-3-[4-(7H-pyrrolo[2,3-d]pyrimidin-4-yl)-1H-pyrazol-1-yl]propanenitrile], the IC50 in experiment [1] was below 10 nM. Also, the JAK2/JAK1 on JAK2 (a.a. 828-1132) is above 10.

With `N#CCC1(n2cc(-c3ncnc4[nH]ccc34)cn2)CN(C2CCN(C(=O)c3ccnc(C(F)(F)F)n3)CC2)C1` [Compound 3, [3-[4-(7H-pyrrolo[2,3-d]pyrimidin-4-yl)-1H-pyrazol-1-yl]-1-(1-{[2-(trifluoromethyl)pyrimidin-4-yl]carbonyl}piperidin-4-yl)azetidin-3-yl]acetonitrile], in experiment [1], the concentration for half-maximal inhibition (IC50) was below 10 nM. Further, at JAK2 (a.a. 828-1132), the JAK2/JAK1 was above 10.

Turning to `N#CCC1(n2cc(-c3ncnc4[nH]ccc34)cn2)CN([C@H]2CC[C@@H](Oc3cc(CCO)nc(C(F)(F)F)n3)CC2)C1` [Compound 18, {1-(cis-4-{[6-(2-hydroxyethyl)-2-(trifluoromethyl)pyrimidin-4-yl]oxy}cyclohexyl)-3-[4-(7H-pyrrolo[2,3-d]pyrimidin-4-yl)-1H-pyrazol-1-yl]azetidin-3-yl}acetonitrile], the IC50 in experiment [1] was below 10 nM. At JAK2 (a.a. 828-1132), the JAK2/JAK1 is recorded as above 10.

As to `C[C@H](O)CNCc1cc(OC2CCN([C@H]3C[C@](CC#N)(n4cc(-c5ncnc6[nH]ccc56)cn4)C3)CC2)nc(C(F)(F)F)c1` [Compound 25, {trans-3-(4-{[4-({[(2S)-2-hydroxypropyl]amino}methyl)-6-(trifluoromethyl)pyridin-2-yl]oxy}piperidin-1-yl)-1-[4-(7H-pyrrolo[2,3-d]pyrimidin-4-yl)-1H-pyrazol-1-yl]cyclobutyl}acetonitrile], the IC50 in experiment [1] was below 10 nM. The JAK2/JAK1 on JAK2 (a.a. 828-1132) was above 10.

The molecule `CCNCc1cc(O[C@H]2CC[C@@H](N3CC(CC#N)(n4cc(-c5ncnc6[nH]ccc56)cn4)C3)CC2)nc(C(F)(F)F)c1` [Compound 19, {1-(cis-4-{[4-[(ethylamino)methyl]-6-(trifluoromethyl)pyridin-2-yl]oxy}cyclohexyl)-3-[4-(7H-pyrrolo[2,3-d]pyrimidin-4-yl)-1H-pyrazol-1-yl]azetidin-3-yl}acetonitrile] registered an IC50 in experiment [1] below 10 nM. Also, the JAK2/JAK1 on JAK2 (a.a. 828-1132) was above 10.

On to `N#CCC1(n2cc(-c3ncnc4[nH]ccc34)cn2)CN(C2CCN(C(=O)c3ccnc(C(F)(F)F)c3F)CC2)C1` [Compound 4, {1-{1-[3-Fluoro-2-(trifluoromethyl)isonicotinoyl]piperidin-4-yl}-3-[4-(7H-pyrrolo[2,3-d]pyrimidin-4-yl)-1H-pyrazol-1-yl]azetidin-3-yl}acetonitrile], for which the IC50 in experiment [1] was below 10 nM. The JAK2/JAK1 at JAK2 (a.a. 828-1132) is recorded as above 10.

`C[C@@H](CO)NCc1cc(OC2CCN([C@H]3C[C@](CC#N)(n4cc(-c5ncnc6[nH]ccc56)cn4)C3)CC2)nc(C(F)(F)F)c1` [Compound 23, {trans-3-(4-{[4-({[(1S)-2-hydroxy-1-methylethyl]amino}methyl)-6-(trifluoromethyl)pyridin-2-yl]oxy}piperidin-1-yl)-1-[4-(7H-pyrrolo[2,3-d]pyrimidin-4-yl)-1H-pyrazol-1-yl]cyclobutyl}acetonitrile]: the IC50 in experiment [1] was below 10 nM. Also, the JAK2/JAK1 on JAK2 (a.a. 828-1132) is recorded as above 10.

For `C[C@H](NC(=O)c1cc(F)c(N2CC(CC#N)(n3cc(-c4ncnc5[nH]ccc45)cn3)C2)cc1F)C(F)(F)F` [Compound 16, 4-{3-(cyanomethyl)-3-[4-(7H-pyrrolo[2,3-d]pyrimidin-4-yl)-1H-pyrazol-1-yl]azetidin-1-yl}-2,5-difluoro-N-[(1S)-2,2,2-trifluoro-1-methylethyl]benzamide], the IC50 in experiment [1] is below 10 nM. For the same molecule, the JAK2/JAK1 on JAK2 (a.a. 828-1132) is given as above 10.

Molecule `N#CCC1(n2cc(-c3ncnc4[nH]ccc34)cn2)CN([C@H]2CC[C@@H](Oc3cc(CN4CC[C@H](O)C4)cc(C(F)(F)F)n3)CC2)C1` [Compound 22, {1-(cis-4-{[4-{[(3S)-3-hydroxypyrrolidin-1-yl]methyl}-6-(trifluoromethyl)pyridin-2-yl]oxy}cyclohexyl)-3-[4-(7H-pyrrolo[2,3-d]pyrimidin-4-yl)-1H-pyrazol-1-yl]azetidin-3-yl}acetonitrile] showed an IC50 in experiment [1] below 10 nM. Besides, the JAK2/JAK1 on JAK2 (a.a. 828-1132) was above 10.

`N#CCC1(n2cc(-c3ncnc4[nH]ccc34)cn2)CN(C2CCN(C(=O)Nc3ccc(F)cc3C(F)(F)F)CC2)C1` [Compound 2, 4-{3-(Cyanomethyl)-3-[4-(7H-pyrrolo[2,3-d]pyrimidin-4-yl)-1H-pyrazol-1-yl]azetidin-1-yl}-N-[4-fluoro-2-(trifluoromethyl)phenyl]piperidine-1-carboxamide] displayed an IC50 in experiment [1] below 10 nM. In addition, the JAK2/JAK1 on JAK2 (a.a. 828-1132) is given as above 10.

Regarding `C[C@@H](O)CNCc1cc(OC2CCN([C@H]3C[C@](CC#N)(n4cc(-c5ncnc6[nH]ccc56)cn4)C3)CC2)nc(C(F)(F)F)c1` [Compound 24, {trans-3-(4-{[4-({[(2R)-2-hydroxypropyl]amino}methyl)-6-(trifluoromethyl)pyridin-2-yl]oxy}piperidin-1-yl)-1-[4-(7H-pyrrolo[2,3-d]pyrimidin-4-yl)-1H-pyrazol-1-yl]cyclobutyl}acetonitrile], in experiment [1], the IC50 was below 10 nM. Further, the JAK2/JAK1 at JAK2 (a.a. 828-1132) was above 10.

Molecule `N#CC[C@]1(n2cc(-c3ncnc4[nH]ccc34)cn2)C[C@H](N2CCC(Oc3cc(CCO)cc(C(F)(F)F)n3)CC2)C1` [Compound 26, {trans-3-(4-{[4-(2-hydroxyethyl)-6-(trifluoromethyl)pyridin-2-yl]oxy}piperidin-1-yl)-1-[4-(7H-pyrrolo[2,3-d]pyrimidin-4-yl)-1H-pyrazol-1-yl]cyclobutyl}acetonitrile] came in with an IC50 in experiment [1] below 10 nM. Further, the JAK2/JAK1 on JAK2 (a.a. 828-1132) is listed as above 10.

Molecule `N#CC[C@]1(n2cc(-c3ncnc4[nH]ccc34)cn2)C[C@H](N2CCC(Oc3cc(CN4CCC[C@H]4CO)cc(C(F)(F)F)n3)CC2)C1` [Compound 12, {trans-3-(4-{[4-{[(2S)-2-(hydroxymethyl)pyrrolidin-1-yl]methyl}-6-(trifluoromethyl)pyridin-2-yl]oxy}piperidin-1-yl)-1-[4-(7H-pyrrolo[2,3-d]pyrimidin-4-yl)-1H-pyrazol-1-yl]cyclobutyl}acetonitrile] returned an IC50 in experiment [1] below 10 nM. For the same molecule, the JAK2/JAK1 at JAK2 (a.a. 828-1132) is recorded as above 10.

The molecule `C[C@@H](O)c1nc2cnc3ccsc3c2n1[C@H]1CC[C@H](CC#N)OC1` [Compound 5, ((2R,5S)-5-{2-[(1R)-1-hydroxyethyl]-1H-imidazo[4,5-d]thieno[3,2-b]pyridin-1-yl}tetrahydro-2H-pyran-2-yl)acetonitrile] returned an IC50 in experiment [1] below 100 nM. The JAK2/JAK1 on JAK2 (a.a. 828-1132) was above 10.

In turn, `N#CCC(CN1CCN(C(=O)c2ccc(C#N)cc2F)CC1)n1cc(-c2ncnc3[nH]ccc23)cn1` (stereo not drawn) [Compound 8, 4-[(4-{3-cyano-2-[4-(7H-pyrrolo[2,3-d]pyrimidin-4-yl)-1H-pyrazol-1-yl]propyl}piperazin-1-yl)carbonyl]-3-fluorobenzonitrile] yielded an IC50 in experiment [1] below 10 nM. The JAK2/JAK1 on JAK2 (a.a. 828-1132) was above 10.

`N#CC[C@]1(n2cc(-c3ncnc4[nH]ccc34)cn2)C[C@H](N2CCC(Oc3cc(CN4CCC[C@@H]4CO)cc(C(F)(F)F)n3)CC2)C1` [Compound 13, {trans-3-(4-{[4-{[(2R)-2-(hydroxymethyl)pyrrolidin-1-yl]methyl}-6-(trifluoromethyl)pyridin-2-yl]oxy}piperidin-1-yl)-1-[4-(7H-pyrrolo[2,3-d]pyrimidin-4-yl)-1H-pyrazol-1-yl]cyclobutyl}acetonitrile] returned an IC50 in experiment [1] below 10 nM. For the same molecule, the JAK2/JAK1 on JAK2 (a.a. 828-1132) is recorded as above 10.

As to `N#CCC(CN1CCN(C(=O)c2ccc(C#N)cc2F)CC1)n1ccc(-c2ncnc3[nH]ccc23)c1` (stereo not drawn) [Compound 9, 4-[(4-{3-cyano-2-[3-(7H-pyrrolo[2,3-d]pyrimidin-4-yl)-1H-pyrrol-1-yl]propyl}piperazin-1-yl)carbonyl]-3-fluorobenzonitrile], the half-maximal inhibitory concentration (IC50) in experiment [1] is below 10 nM. For the same molecule, the JAK2/JAK1 at JAK2 (a.a. 828-1132) is above 10.

`N#CCC1(n2cc(-c3ncnc4[nH]ccc34)cn2)CN([C@H]2CC[C@@H](Oc3cc(CN4CC[C@@H](O)C4)cc(C(F)(F)F)n3)CC2)C1` [Compound 21, {1-(cis-4-{[4-{[(3R)-3-hydroxypyrrolidin-1-yl]methyl}-6-(trifluoromethyl)pyridin-2-yl]oxy}cyclohexyl)-3-[4-(7H-pyrrolo[2,3-d]pyrimidin-4-yl)-1H-pyrazol-1-yl]azetidin-3-yl}acetonitrile] displayed an IC50 in experiment [1] below 10 nM. Further, the JAK2/JAK1 on JAK2 (a.a. 828-1132) is recorded as above 10.

In the case of `N#CC[C@]1(n2cc(-c3ncnc4[nH]ccc34)cn2)C[C@H](N2CCN(C(=O)c3ccnc(C(F)(F)F)n3)CC2)C1` [Compound 10, [trans-1-[4-(7H-pyrrolo[2,3-d]pyrimidin-4-yl)-1H-pyrazol-1-yl]-3-(4-{[2-(trifluoromethyl)pyrimidin-4-yl]carbonyl}piperazin-1-yl)cyclobutyl]acetonitrile], in experiment [1], the IC50 is below 10 nM. Also, the JAK2/JAK1 at JAK2 (a.a. 828-1132) was above 10.

For `N#CC[C@]1(n2cc(-c3ncnc4[nH]ccc34)cn2)C[C@H](N2CCC(Oc3cc(CN4CC(O)C4)cc(C(F)(F)F)n3)CC2)C1` [Compound 11, {trans-3-(4-{[4-[(3-hydroxyazetidin-1-yl)methyl]-6-(trifluoromethyl)pyridin-2-yl]oxy}piperidin-1-yl)-1-[4-(7H-pyrrolo[2,3-d]pyrimidin-4-yl)-1H-pyrazol-1-yl]cyclobutyl}acetonitrile], the IC50 in experiment [1] was below 10 nM. Also, the JAK2/JAK1 on JAK2 (a.a. 828-1132) is above 10.

The molecule `N#CCC(C1CCN(c2cccc(Cl)n2)C1)n1cc(-c2ncnc3[nH]ccc23)cn1` (single isomer, unassigned) [Compound 6, 3-[1-(6-chloropyridin-2-yl)pyrrolidin-3-yl]-3-[4-(7H-pyrrolo[2,3-d]pyrimidin-4-yl)-1H-pyrazol-1-yl]propanenitrile] came in with an IC50 in experiment [1] below 10 nM. Moreover, at JAK2 (a.a. 828-1132), the JAK2/JAK1 is recorded as above 10.
